Calls of active or inactive are those of the source. No cut-off for these calls is given here.
Assays:
[1] = Growth inhibition of human RCC4 cells after 4 days by XTT assay; assay type: functional, cell-based; conditions: RCC4, 96 h
[2] = Growth inhibition of human RCC4/VHL cells after 4 days by XTT assay; assay type: functional, cell-based; conditions: 96 h
[3] = Selectivity ratio IC50 for human RCC4/VHL cells to IC50 for human RCC4 cells; assay type: functional
RCC4 = assay: Induction of autophagy in human RCC4 cells assessed as formation of intracytoplasmic vacuoles at 5 uM after 24 hrs by phase contrast microscopy; assay type: functional, cell-based

Compound | IC50 ([1]; read-out: IC50) [µM] | IC50 ([1]; read-out: pIC50 (converted)) [µM] | IC50 [2] [µM] | Ratio IC50 [3] | Activity (RCC4)
Cc1cccc(Nc2nc(-c3ccncc3)cs2)c1 | 2.1 | 2.14 | 40 | 19 | Active
Cc1cccc(Nc2nc(-c3ccncc3OCCCN(C)C)cs2)c1 | 2.7 | 2.75 | 20.2 | 7.4 | Active
Cc1cccc(Nc2nc(-c3ccnc(-c4cnn(Cc5ccccc5)c4)c3)cs2)c1 | 2.2 | 2.24 | 66.1 | 30 | Active
Cc1cccc(Nc2cc(-c3ccncc3)ncn2)c1 | 23.1 | 23.4 | 28.1 | 1.2 | 
Cc1cccc(Nc2nc(-c3ccnc(-c4cc[nH]n4)c3)cs2)c1 | 0.48 | 0.49 | 20 |  | Active
Cc1cccc(Nc2nc(-c3ccncc3C#CCN3CCOCC3)cs2)c1 | 0.57 | 0.575 | 2.3 | 4 | Active
CC(=O)c1ccc(-c2cc(-c3csc(Nc4cccc(C)c4)n3)ccn2)cc1 | 38.8 | 38.9 | 33.4 | 0.9 | 
Cc1cccc(Nc2nc(-c3ccncc3OCCN3CCOCC3)cs2)c1 | 0.32 | 0.324 | 0.88 | 2.8 | 
Cc1cccc(Nc2nc(-c3ccnc(-c4c(C)noc4C)c3)cs2)c1 | 3 | 3.02 | 36.5 | 12 | 
Cc1cccc(Nc2nccc(-c3ccncc3)n2)c1 | 6.5 | 6.61 | 8.6 | 1.3 | 
Cc1cccc(Nc2nc(-c3ccncc3N3CCN(C)CC3)cs2)c1 | 2.6 | 2.63 | 6.6 | 2.5 | 
Cc1cccc(Nc2nc(-c3ccnc(-c4cnn(C)c4)c3)cs2)c1 | 5.2 | 5.25 | 8.1 | 1.6 | 
Cc1cccc(Nc2nc(-c3ccncc3C#CCN3CCN(C)CC3)cs2)c1 | 2.6 | 2.63 | 2.2 | 0.9 | 
Cc1cccc(Nc2nc(-c3ccncc3-c3ccc(C(=O)N4CCN(C)CC4)cc3)cs2)c1 | 12.8 | 12.9 | > 40 | >3.1 | 
